Experimental data from US9695155B2, “Herbicidal substituted pyrimidinyloxy benzene compounds” (E. I. DU PONT DE NEMOURS AND COMPANY, priority 2013, dated 2017).

Key:
barnyardgrass [1] = test: Test A preemergence; assay type: in vivo, Echinochloa crus-galli; details: for Barnyardgrass plant response rating: 500 g ai/ha
Procedure, shortened: (§1)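 Pre- and postemergence greenhouse screen. Soil: loam + sand. Spray carrier: solvent mixture, non-phytotoxic, with surfactant. Post timing at 1–2 leaves, height 2–10 cm. Readout: visual injury on a 0–100 scale roughly 10 days after application, untreated plants as reference.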

large (Lg) crabgrass [2] = test: Test A preemergence; assay type: in vivo, Digitaria sanguinalis; details: for Crabgrass, Large plant response rating: 500 g ai/ha
Procedure, shortened: as §1

giant foxtail [3] = test: Test A preemergence; assay type: in vivo, Setaria faberii; details: for Foxtail, Giant plant response rating: 500 g ai/ha
Procedure, shortened: as §1

morningglory [4] = test: Test A preemergence; assay type: in vivo, Ipomoea spp.; details: for Morningglory plant response rating: 500 g ai/ha
Procedure, shortened: as §1

pigweed [5] = test: Test A preemergence; assay type: in vivo, Amaranthus retroflexus; details: for Pigweed plant response rating: 500 g ai/ha
Procedure, shortened: as §1

velvetleaf [6] = test: Test A preemergence; assay type: in vivo, Abutilon theophrasti; details: for Velvetleaf plant response rating: 500 g ai/ha
Procedure, shortened: as §1

wheat [7] = test: Test A preemergence; assay type: in vivo, Triticum aestivum; details: for Wheat plant response rating: 500 g ai/ha
Procedure, shortened: as §1

corn [8] = test: Test A preemergence; assay type: in vivo, Zea mays; details: for Corn plant response rating: 500 g ai/ha
Procedure, shortened: as §1

barnyardgrass [9] = test: Test A postemergence; assay type: in vivo, Echinochloa crus-galli
Procedure, shortened: as §1

large (Lg) crabgrass [10] = test: Test A postemergence; assay type: in vivo, Digitaria sanguinalis
Procedure, shortened: as §1

giant foxtail [11] = test: Test A postemergence; assay type: in vivo, Setaria faberii
Procedure, shortened: as §1

morningglory [12] = test: Test A postemergence; assay type: in vivo, Ipomoea spp.
Procedure, shortened: as §1

pigweed [13] = test: Test A postemergence; assay type: in vivo, Amaranthus retroflexus
Procedure, shortened: as §1

velvetleaf [14] = test: Test A postemergence; assay type: in vivo, Abutilon theophrasti
Procedure, shortened: as §1

wheat [15] = test: Test A postemergence; assay type: in vivo, Triticum aestivum
Procedure, shortened: as §1

corn [16] = test: Test A postemergence; assay type: in vivo, Zea mays
Procedure, shortened: as §1

rice = test: Test B flooded paddy test; assay type: in vivo, Oryza sativa; details: Flood, 250 g ai/ha; 0 to 100 scale where 0 is no effect and 100 is complete control
Procedure, shortened: (§2)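 Compound added straight to paddy water, with pots kept flooded 3 cm above soil, on plants grown to the 2-leaf stage. Visual scoring 0-100 (100 = complete control) against untreated controls after 13 to 15 greenhouse days.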

sedge, umbrella = test: Test B flooded paddy test; assay type: in vivo, Cyperus difformis; details: Flood, 250 g ai/ha; 0 to 100 scale where 0 is no effect and 100 is complete control
Procedure, shortened: as §2

Heteranthera limosa = test: Test B flooded paddy test; assay type: in vivo; details: Flood, 250 g ai/ha; 0 to 100 scale where 0 is no effect and 100 is complete control
Procedure, shortened: as §2

barnyardgrass [17] = test: Test B flooded paddy test; assay type: in vivo, Echinochloa crus-galli; details: Flood, 250 g ai/ha; 0 to 100 scale where 0 is no effect and 100 is complete control
Procedure, shortened: as §2

[18] = 0 to 100 scale where 0 is no effect and 100 is complete control
[19] = 125 g ai/ha, 0 to 100 scale, 0 no effect, 100 complete control
[20] = 500 g ai/ha, 0 to 100 scale where 0 is no effect and 100 is complete control
[21] = 125 g ai/ha, 0 to 100 scale where 0 is no effect and 100 is complete control
[22] = 0 to 100 scale, 0 no effect, 100 complete control, approx. 10 days

CCOC(=O)c1cnn(-c2c(C#N)cccc2Oc2ncc(Cl)cn2)c1 [Compound 301]
Barnyardgrass plant response rating (0 to 100 scale, 0 is no effect, 100 is complete control) (barnyardgrass [1]; 125 g ai/ha): 0 | Barnyardgrass plant response rating (barnyardgrass [1]; [18]): 0 | Crabgrass, Large plant response rating (0 to 100 scale) (large (Lg) crabgrass [2]; 125 g ai/ha): 0 | Crabgrass, Large plant response rating (large (Lg) crabgrass [2]; [18]): 0 | Foxtail, Giant plant response rating (0 to 100 scale) (giant foxtail [3]; 125 g ai/ha): 0 | Foxtail, Giant plant response rating (giant foxtail [3]; [18]): 0 | Morningglory plant response rating (0 to 100 scale) (morningglory [4]; 125 g ai/ha): 0 | Morningglory plant response rating (morningglory [4]; [18]): 0 | Pigweed plant response rating (0 to 100 scale) (pigweed [5]; 125 g ai/ha): 0 | Pigweed plant response rating (pigweed [5]; [18]): 0 | Velvetleaf plant response rating (0 to 100 scale) (velvetleaf [6]; 125 g ai/ha): 0 | Velvetleaf plant response rating (velvetleaf [6]; [18]): 0 | Wheat plant response rating (0 to 100 scale) (wheat [7]; 125 g ai/ha): 0 | Wheat plant response rating (wheat [7]; [18]): 0 | Corn plant response rating (0 to 100 scale) (corn [8]; 125 g ai/ha): 0 | Corn plant response rating (corn [8]; [18]): 0 | Plant response rating, Barnyardgrass (barnyardgrass [9]; [19]): 0 | Plant response rating, Barnyardgrass (barnyardgrass [9]; [20]): 0 | Plant response rating, Crabgrass, Large (large (Lg) crabgrass [10]; [19]): 0 | Plant response rating, Crabgrass, Large (large (Lg) crabgrass [10]; [20]): 0 | Plant response rating, Foxtail, Giant (giant foxtail [11]; [19]): 0 | Plant response rating, Foxtail, Giant (giant foxtail [11]; [20]): 0 | Plant response rating, Morningglory (morningglory [12]; [19]): 0 | Plant response rating, Morningglory (morningglory [12]; [20]): 0 | Plant response rating, Pigweed (pigweed [13]; [19]): 0 | Plant response rating, Pigweed (pigweed [13]; [20]): 30 | Plant response rating, Velvetleaf (velvetleaf [14]; [19]): 0 | Plant response rating, Velvetleaf (velvetleaf [14]; [20]): 0 | Plant response rating, Wheat (wheat [15]; [19]): 0 | Plant response rating, Wheat (wheat [15]; [20]): 0 | Plant response rating, Corn (corn [16]; [19]): 0 | Plant response rating, Corn (corn [16]; [20]): 0 | Plant response rating, Rice (rice): 0 | Plant response rating, Sedge, Umbrella (sedge, umbrella): 0 | Plant response rating, Ducksalad (Heteranthera limosa): 0 | Plant response rating, Barnyardgrass (barnyardgrass [17]): 0

CC(=O)c1cccc(Oc2ncc(Cl)cn2)c1-n1cc(Br)cn1 [Compound 96]
Plant response rating, Barnyardgrass (barnyardgrass [1]; [21]): 0 | Barnyardgrass plant response rating (barnyardgrass [1]; [22]): 30 | Plant response rating, Crabgrass, Large (large (Lg) crabgrass [2]; [21]): 30 | Crabgrass, Large plant response rating (large (Lg) crabgrass [2]; [22]): 90 | Plant response rating, Foxtail, Giant (giant foxtail [3]; [21]): 10 | Foxtail, Giant plant response rating (giant foxtail [3]; [22]): 60 | Plant response rating, Morningglory (morningglory [4]; [21]): 0 | Morningglory plant response rating (morningglory [4]; [22]): 0 | Plant response rating, Pigweed (pigweed [5]; [21]): 50 | Pigweed plant response rating (pigweed [5]; [22]): 100 | Plant response rating, Velvetleaf (velvetleaf [6]; [21]): 0 | Plant response rating, Wheat (wheat [7]; [21]): 0 | Plant response rating, Corn (corn [8]; [21]): 0 | Corn plant response rating (corn [8]; [22]): 0 | Plant response rating, Barnyardgrass (barnyardgrass [9]; [21]): 10 | Plant response rating, Barnyardgrass (barnyardgrass [9]; [20]): 30 | Plant response rating, Crabgrass, Large (large (Lg) crabgrass [10]; [21]): 10 | Plant response rating, Crabgrass, Large (large (Lg) crabgrass [10]; [20]): 30 | Plant response rating, Foxtail, Giant (giant foxtail [11]; [21]): 0 | Plant response rating, Foxtail, Giant (giant foxtail [11]; [20]): 20 | Plant response rating, Morningglory (morningglory [12]; [21]): 0 | Plant response rating, Morningglory (morningglory [12]; [20]): 10 | Plant response rating, Pigweed (pigweed [13]; [21]): 10 | Plant response rating, Pigweed (pigweed [13]; [20]): 40 | Plant response rating, Velvetleaf (velvetleaf [14]; [21]): 0 | Plant response rating, Velvetleaf (velvetleaf [14]; [20]): 10 | Plant response rating, Wheat (wheat [15]; [21]): 0 | Plant response rating, Wheat (wheat [15]; [20]): 0 | Plant response rating, Corn (corn [16]; [21]): 0 | Plant response rating, Corn (corn [16]; [20]): 10 | Plant response rating, Rice (rice): 0 | Plant response rating, Sedge, Umbrella (sedge, umbrella): 0 | Plant response rating, Ducksalad (Heteranthera limosa): 0 | Plant response rating, Barnyardgrass (barnyardgrass [17]): 0

N#Cc1cccc(Oc2ncc(Cl)cn2)c1-n1cc([N+](=O)[O-])cn1 [Compound 304]
Barnyardgrass plant response rating (0 to 100 scale, 0 is no effect, 100 is complete control) (barnyardgrass [1]; 125 g ai/ha): 0 | Barnyardgrass plant response rating (barnyardgrass [1]; [18]): 0 | Crabgrass, Large plant response rating (0 to 100 scale) (large (Lg) crabgrass [2]; 125 g ai/ha): 0 | Crabgrass, Large plant response rating (large (Lg) crabgrass [2]; [18]): 10 | Foxtail, Giant plant response rating (0 to 100 scale) (giant foxtail [3]; 125 g ai/ha): 0 | Foxtail, Giant plant response rating (giant foxtail [3]; [18]): 0 | Morningglory plant response rating (0 to 100 scale) (morningglory [4]; 125 g ai/ha): 0 | Morningglory plant response rating (morningglory [4]; [18]): 0 | Pigweed plant response rating (0 to 100 scale) (pigweed [5]; 125 g ai/ha): 0 | Pigweed plant response rating (pigweed [5]; [18]): 0 | Velvetleaf plant response rating (0 to 100 scale) (velvetleaf [6]; 125 g ai/ha): 0 | Velvetleaf plant response rating (velvetleaf [6]; [18]): 0 | Wheat plant response rating (0 to 100 scale) (wheat [7]; 125 g ai/ha): 0 | Wheat plant response rating (wheat [7]; [18]): 0 | Corn plant response rating (0 to 100 scale) (corn [8]; 125 g ai/ha): 0 | Corn plant response rating (corn [8]; [18]): 0 | Plant response rating, Barnyardgrass (barnyardgrass [9]; [19]): 0 | Plant response rating, Barnyardgrass (barnyardgrass [9]; [20]): 0 | Plant response rating, Crabgrass, Large (large (Lg) crabgrass [10]; [19]): 0 | Plant response rating, Crabgrass, Large (large (Lg) crabgrass [10]; [20]): 0 | Plant response rating, Foxtail, Giant (giant foxtail [11]; [19]): 0 | Plant response rating, Foxtail, Giant (giant foxtail [11]; [20]): 0 | Plant response rating, Morningglory (morningglory [12]; [19]): 0 | Plant response rating, Morningglory (morningglory [12]; [20]): 0 | Plant response rating, Pigweed (pigweed [13]; [19]): 30 | Plant response rating, Pigweed (pigweed [13]; [20]): 50 | Plant response rating, Velvetleaf (velvetleaf [14]; [19]): 0 | Plant response rating, Velvetleaf (velvetleaf [14]; [20]): 0 | Plant response rating, Wheat (wheat [15]; [19]): 0 | Plant response rating, Wheat (wheat [15]; [20]): 0 | Plant response rating, Corn (corn [16]; [19]): 0 | Plant response rating, Corn (corn [16]; [20]): 0 | Plant response rating, Rice (rice): 0 | Plant response rating, Sedge, Umbrella (sedge, umbrella): 0 | Plant response rating, Ducksalad (Heteranthera limosa): 0 | Plant response rating, Barnyardgrass (barnyardgrass [17]): 0
